Data as given in US20100210649A1, “PYRIDAZINONES AND FURAN-CONTAINING COMPOUNDS” (Sloan-Kettering Institute for Cancer Research, priority 2006, published 2010).
Like-named read-outs stand apart in the source and are kept apart here.

Experiments:
H1650 = assay: Non Small Cell Lung Cancer proliferation assay (Alamar Blue reduction), H1650; assay type: cell-based, human; settings: Homo sapiens
Method in brief: (§1)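 Proliferation after 48 h compound exposure (1% DMSO final, 37 °C) was read by Alamar Blue reduction over an additional 48 h, fluorescence at 530 nm excitation/590 nm emission. Dose-response runs seeded 250 cells/well; DMSO-only wells as high control.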

H1118 = assay: Non Small Cell Lung Cancer proliferation assay (Alamar Blue reduction), H1118; assay type: cell-based; settings: Homo sapiens; H1118; 12 point doubling dilution 10 uM to 5 nM; 48 h treatment, alamar blue additional 48 h; read-out: IC50 H1118
H820 = assay: Dose response study (Alamar Blue), H820; assay type: cell-based; settings: Homo sapiens, NCI-H820; H820; 12 point doubling dilution 10 uM to 5 nM; 48 h treatment, alamar blue additional 48 h; read-out: IC50 H820
Description: (§2) Dose response studies against 34 compounds from the pyridazinone and phenylfuran-carboxamide class were conducted. […] In addition, Tarceva was included in these dose response studies.
(§3) The dose response studies were done with the following standard procedure. First, the cells were counted and dispensed at 250 cells/well into 384-well microplates with compound. The cells were incubated for 48 hours at 37 C to complete treatment, and then alamar blue was added for an additional 48 hours. Finally, alamar blue reduction was measured and the data was loaded into ORIS, our data screening acquisition platform.

[1] = test system: HPL1D (human peripheral lung epithelial) cell line; assay: Cell proliferation / dose response (Alamar Blue), HPL1D; assay type: cell-based; settings: HPL1D, 12 point doubling dilution 10 uM to 5 nM, 48 h treatment, alamar blue additional 48 h, read-out: IC50 HPL1D
Description: WI-38: human lung fibroblast cell line. […] WT: wildtype; WT*: over-expressed wildtype. Dose response studies against 34 compounds from the pyridazinone and phenylfuran-carboxamide class were conducted. […] In addition, Tarceva was included in these dose response studies. The dose response studies were done with the following standard procedure. […] The cells were incubated for 48 hours at 37 C to complete treatment, and then alamar blue was added for an additional 48 hours. Finally, alamar blue reduction was measured and the data was loaded into ORIS, our data screening acquisition platform.

H2444 = assay: Dose response study (Alamar Blue), H2444; assay type: cell-based; settings: Homo sapiens, NCI-H2444; H2444; 12 point doubling dilution 10 uM to 5 nM; 48 h treatment, alamar blue additional 48 h; read-out: IC50 H2444
Description: as §2, §3

H1734 = assay: Non Small Cell Lung Cancer proliferation assay (Alamar Blue reduction), H1734; assay type: cell-based, human; settings: Homo sapiens, NCI-H1734
Method in brief: as §1

IC50 (H1650; NCI-H1650, 48 h, H1650, 12 point doubling dilution 10 uM to 5 nM, 48 h treatment, alamar blue additional 48 h, read-out: IC50 H1650): 0.51 µM | IC50 (H1650; NCI-H1650, dose response 10 M to 5 nM, IC50, read-out: Dose Response (uM) H1650): 1.36 µM | IC50 (H1118): 570 nM | IC50 (H820): 290 nM | IC50 (H2444): 400 nM | IC50 (H1734; H1734, 12 point doubling dilution 10 uM to 5 nM, 48 h treatment, alamar blue additional 48 h, read-out: IC50 H1734): 1.23 µM | IC50 (H1734; read-out: Dose Response (uM) H1734): 0.93 µM
Compound: NCCCOc1cccc(-n2ncc(Br)c(Br)c2=O)c1 [compound 273634]
IC50 [1]: 350 nM
